Values of other authors, collected in patent EP0062861A1, “Isophorone-free formulations of the herbicide propanyl” (Montedison S.p.A., priority 1981, dated 1982).

Test system: mammalians
Settings: toxicity towards mammalians

Structure (SMILES): CCC(=O)Nc1ccc(Cl)c(Cl)c1 [Propanyl, N-(3,4-dichlorophenyl)-propionamide]
- LD 50: 1384 mg/kg
